# Assay results from EP0888346B1, “CORALYNE ANALOGS AS TOPOISOMERASE INHIBITORS” (RUTGERS, THE STATE UNIVERSITY OF NEW JERSEY, priority 1996, dated 1997).
# Like-named read-outs stand apart in the source and are kept apart here.
# Tests used:
# [1] = system: Human lymphoblast RPMI 8402 cells; assay: MTT-microtiter plate tetrazolinium cytotoxicity assay (MTA); type: cell-based; details: Homo sapiens, RPMI 8402, 96 h
# Description: (§1) The results were plotted and the IC50 then measured.
# [2] = system: glioblastoma cell line SF-268; assay: MTA cytotoxicity assay, glioblastoma cells; type: cell-based; details: Homo sapiens, SF-268, 96 h, read-out: Cytotoxicity SF-268
# Description: as §1
# (§2) The coralyne analog 7c was tested for its effectiveness against glioblastoma cells. The assay used was similar to that described above for the RPMI-8402 cell line. The results are shown in table 2 below which compares the effect of Compound 7c against the leukemia cell line (RPMI 8402), epidermal carncinoma (KB3-1) and glioblastoma (SF-268): Table 2
# [3] = system: yeast cells expressing functional yeast topoisomerase I; assay: Yeast cytotoxicity assay, strain expressing wild-type yeast topo I; type: cell-based, S. cerevisiae; details: plates with 1 µM drug (camptothecin 0.5 µM), 3 days at 30°C
# Description: It has been established that yeast can survive when topoisomerase I function is obliterated, and that the topoisomerase I poisons only kill cells having a functional topoisomerase I (Bjornsti et al. Cancer Res. 49:6318-6323 (1989)).
# The topoisomerase I-specific in vivo cytotoxicity assay was adapted from Knab et al. (Knab et al., J. Biol. Chem. 268:22322-22330 (1993)). In this system, various topo I genes cloned into the single copy yeast plasmid vector, YCpGAL1 (Knab et al., J. Biol. Chem. 268:22322-22330 (1993)), are expressed under the control of the GAL1 promoter in the JN2-134 strain of S. cerevisiae (MATa, rad52::LEU2, trp1, ade2-1,his7, ura3-52, isel, top1-1, leu2) (Bjornsti et al., Cancer Res. 49:6318-6323 (1989)). The topo I constructs in the vector are, respectively, the wild-type yeast topo I (YCpGAL-ScTOP1), a non-functional yeast topo I where the active site tyrosine-727 is mutated to a phenylalanine (YCpGAL1-Sctop1Y727F) (Knab et al., J. Biol. Chem. 268:22322-22330 (1993)), and the wild type human topoisomerase I (YCpGAL-hTOP1) (Bjornsti et al., Cancer Res. 49:6318-6323 (1989)). To qualitatively test the cytotoxicity and the topo I specificity of the drugs, yeast cells containing the specific plasmid were serially diluted (5-fold) and were grown in dropout medium supplemented with uracil and 2% galactose In addition, the plates contained: A: Control, no drug in the plate; B: Camptothecin (CPT), 0.5 µM; C: Coralyne, 1 µM; D: Methylenedioxy-dihydro-demethyl-coralyne (MDD-Coralyne), 1 µM, and E: Nitidine, 1 µM. The plates were grown for 3 days at 30°C to assess the lethal effect of the different compounds on the various topoisomerase I enzymes expressed in S. cerevisiae.and the drug being tested.
# [4] = system: camptothecin-resistant CPT-K5 cells; assay: MTT-microtiter plate tetrazolinium cytotoxicity assay (MTA), camptothecin-resistant cells; details: Homo sapiens, CPT-K5, 96 h, read-out: Cytotoxicity IC50 CPT-K5
# Description: The IC50 of the drugs tested were determined by the MTT-microtiter plate tetrazolinium cytotoxicity assay (MTA) (Mosmann, T., J. Immunol. Methods 65:55-63 (1983); Denizot et al., J. Immunol. Methods 89:271-277 (1986)). Human lymphoblast RPMI 8402 cells and their camptothecin-resistant CPT-K5 cells (Andoh et al., Proc. Natl. Acad. Sci., USA 84:5565-5569 (1987)) were kindly provided by Dr. Toshiwo Andoh (Aichi Cancer Center Research Institute, Nagoya, Japan). […] Cells (2000 cells/well, seeded in […] growth medium) were grown in suspension at 37°C in 5% CO2 and maintained by regular passage in RPMI medium supplemented with 10% heat inactivated fetal bovine serum, L-glutamine (2 mM), penicillin (100 U/ml), and streptomycin (0.1 mg/ml). The cells were exposed continuously for 4 days to different drug concentrations, and assayed at the end of the fourth day. Each concentration and the no drug control were repeated at least twice in 6 replica wells. The results were plotted and the IC50 then measured. The drug sensitive human epidermoid carcinoma KB 3-1 cell line and its vinblastine-selected multidrug-resistant variant KB-V1 cells (Akiyama et al., Genetics 11:117-126 (1985)) were kindly provided by Dr. Michael Gottesmann (National Cancer Institute). They were grown as monolayer cultures at 37°C in 5% CO2 and maintained by regular passage in Dulbecco's minimal essential medium supplemented with 10% heat inactivated fetal bovine serum. KB-V1 cells were maintained in the presence of […] vinblastine.
# [5] = target: T1, recombinant CPT-K5 topoisomerase I (Homo sapiens, UniProt P11387, D533G); assay: Cleavage assay with camptothecin-resistant mutant topo I; type: biochemical; details: relative to wildtype human topoisomerase I
# T1 construct: 15 amino acid vector-derived fusion (pET-11a leader); made in house; host or cells: E. coli BL21(DE3)
# T1 sequence (P11387 1-765 D533G): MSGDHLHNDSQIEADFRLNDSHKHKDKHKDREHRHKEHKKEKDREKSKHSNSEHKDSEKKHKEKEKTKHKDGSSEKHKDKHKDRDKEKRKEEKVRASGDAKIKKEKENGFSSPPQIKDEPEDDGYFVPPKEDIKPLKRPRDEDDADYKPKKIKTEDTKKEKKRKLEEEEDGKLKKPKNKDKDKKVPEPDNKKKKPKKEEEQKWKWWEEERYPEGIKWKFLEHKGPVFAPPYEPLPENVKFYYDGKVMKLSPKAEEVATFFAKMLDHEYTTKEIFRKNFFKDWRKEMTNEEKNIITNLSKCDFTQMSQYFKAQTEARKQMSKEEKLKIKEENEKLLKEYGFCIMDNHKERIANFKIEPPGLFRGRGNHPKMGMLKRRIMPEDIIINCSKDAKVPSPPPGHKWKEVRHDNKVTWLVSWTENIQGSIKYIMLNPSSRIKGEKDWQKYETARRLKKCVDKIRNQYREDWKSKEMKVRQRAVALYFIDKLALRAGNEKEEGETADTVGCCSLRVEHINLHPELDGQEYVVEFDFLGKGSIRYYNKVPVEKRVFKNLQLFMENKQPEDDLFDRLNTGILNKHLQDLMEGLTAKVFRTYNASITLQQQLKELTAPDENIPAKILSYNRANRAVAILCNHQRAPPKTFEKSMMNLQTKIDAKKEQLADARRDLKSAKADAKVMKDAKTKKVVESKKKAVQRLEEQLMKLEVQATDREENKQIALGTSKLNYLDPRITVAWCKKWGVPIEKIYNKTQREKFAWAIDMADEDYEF
# Description: Cleavage assays for the recombinant topoisomerases I and calf thymus topoisomerases I and II were done as described (Liu et al., J. Biol. Chem. 258:15365-15370 (1983)). The plasmid YEpG DNA used for the cleavage assays was prepared and labeled at its 3'-end using the published procedures.
# [6] = system: human epidermoid carcinoma KB 3-1 cell line; assay: MTA cytotoxicity assay, epidermoid carcinoma cells; type: cell-based; details: KB 3-1, 96 h, read-out: Cytotoxicity KB3-1
# Description: as §1, §2
smiles,measurement,setting,value
"CC[C@@]1(O)C(=O)OCc2c1cc1n(c2=O)Cc2cc3ccccc3nc2-1 [CPT, camptothecin, reference compound]",IC50,[1]; read-out: Cytotoxicity IC50 RPMI,4 nM
same,IC50,[1]; read-out: Cytotoxicity RPMI 8402,3 ng/mL
same,IC50,[2],5 ng/mL
same,cytotoxicity against yeast cells expressing functional yeast topoisomerase I (in words),[3],quite sensitive
same,IC50,[4],> 10000 nM
same,resistance of recombinant CPT-K5 topoisomerase I to the drug,[5],over 1000 fold
same,IC50,[6],4 ng/mL
